According to US12576040B2, “Ionizable lipids and methods of manufacture and use thereof” (priority 2020, dated 2026):
Like-named read-outs stand apart in the source and are kept apart here. Marks after values point to notes of the source that are not given here.

How the values were obtained:
[1] = format: physicochemical; conditions: Table 11a
Experimental: In certain embodiments, the pKa of the Ionizable Lipids of the Invention included in the LNP is measured by fluorescent enhancement of an anionic lipophilic dye TNS binding to the LNP containing the ionizable lipid. Prior studies have shown that the TNS pKa needs to be near 6.5 for efficient delivery to liver upon IV administration. The pKa in the aqueous phase can be predicted by software such ACDLabs Percepta, resulting in pKas that are higher than the TNS pKa. Given the importance of the LNP pKa in determining their efficiency, we developed new methods (zeta potential, ^1H NMR, modeling) to link the intrinsic pKa of the ionizable lipid to LNP ionization properties, in order to rationally design effective systems for mRNA delivery.
In certain embodiments, the hydrophilic DMG-PEG forms the shell of the LNP. The amount of nucleic acid is represented by the NP mole ratio of the amine on the ionizable lipid to the phosphate groups on the nucleic acid backbone and is typically 3-6. In certain embodiments, the pKa of the LNP to be in the 6-7 range corresponding to the pH in the early endosome. […] The pKa of the LNP was measured using the pH-dependence of fluorescence enhancement of the anionic dye TNS. In certain embodiments, the pKa-dependent endosomal release mechanism was described as an ion-pairing event between the cationic protonated ionizable lipid and anionic endosomal phospholipids where a divergent cone-shape lipid tail of the ionizable lipid facilitates membrane rupture.

[2] = Table 11a; known ionizable lipids, LNP pKa; cited from earlier work
[3] = format: physicochemical; conditions: for pKa,ZP: LNP containing the ionizable lipid, Henderson Hasselbalch fit to zeta potential; for pI, ZP: LNP isoelectric pI from zeta potential
Experimental: (§1) • A: Ribogreen Assay for mRNA Encapsulation Efficiency. 1×TE Buffer and Triton Buffer (2% v/v in 1×TE Buffer) were added in duplicates into a black microplate per LNP. LNPs were diluted to 4 ng/ul in 1×DPBS pH 7.4 and added to each TE/Triton well in a ratio 1:1. Two standard curves were included in the Ribogreen Assay, one containing mRNA and 1×TE Buffer and other containing mRNA and Triton Buffer. Each one of these standard curves were used to calculate the mRNA concentration in each TE Buffer or Triton Buffer. This approach using two standard curves is more accurate for calculating the encapsulation efficiency and mRNA concentrations, in comparison to a single standard curve. Standards were included in the microplate after diluted LNPs were added to the plate. Microplates were incubated at 37° C. for 10 minutes to extract LNPs with Triton. Ribogreen reagent was diluted 1:100 in 1×TE Buffer and added to each well in a ratio 1:1. Microplates were immediately introduced into the Cytation 5 Cell Imaging Multi-Mode Reader (Biotek) to read Fluorescence (Ex485/Em528). The results are illustrated in FIG. 34. • B: Dynamic Light Scattering for LNP Size (red dots are PDI right y axis). LNPs were diluted to 6.25 ng/ul in 1×DPBS pH 7.4 and transferred into a quartz cuvette (ZEN2112) to measure size by Dynamic Light Scattering (DLS) in the Zetasizer Nano ZS (Malvern Panalytical) using particle RI of 1.45 and Absorption of 0.001 in 1×PBS at 25° C. with viscosity of 1.02 cP and RI of 1.335. Measurements were made using a 173° Backscatter angle of detection previously equilibrated to 25° C. for 30 seconds in duplicates, each with 5 runs and 10 second run duration, without delay between measurements. […] Data was analyzed using a General-Purpose model with normal resolution. The results are illustrated in FIG. 35. • C: Zeta Potential for LNP charge, pKa and pI. LNPs were diluted in a 75 mM TNS Buffer (10 mM of each of glycylglycine, acetate, imidazole, 20 mM borate, 25 mM NaCl) to contain 0.8 mg of total mRNA in 800 ul of the TNS Buffer and transferred into a Folded Capillary Zeta Cell (DTS1070) to measure size by Dynamic Light Scattering (DLS) and electrophoretic mobility by Electrophoretic Light Scattering (ELS) in the Zetasizer Nano ZS (Malvern Panalytical). Zeta potential is measured under conditions of controlled voltage to limit ohmic heating in a solution with 4 buffers with pKas spread across the pH range 3-10 with 0.5 intervals. LNP pKa is calculated by fitting the Henderson Hasselbalch equation to zeta potential data. LNP pI is found by interpolating zeta potential to zero. We use electrokinetic models to calculate Henry's function and charge of the LNP. The results are illustrated in FIG. 36. • D: TNS Assay for LNP pKa. LNPs were diluted to keep a final concentration of 75 uM of the ionizable lipid and 6 uM of TNS in a 75 mM TNS Buffer (10 mM of each of glycylglycine, acetate, imidazole, 20 mM borate, 25 mM NaCl) in order to keep a ratio TNS/ionizable of 0.08. Fluorescence TNS is measured in a solution with 4 buffers with pKas spread across the pH range 3-10 with 0.5 intervals. The pKa of the LNP was measured using the pH-dependence of fluorescence enhancement of the anionic dye TNS, higher intensity at lower pH and lower at high pH. LNP pKa is calculated by fitting the Henderson Hasselbalch equation to fluorescence data from the TNS Assay. The results are illustrated in FIG. 37.
LNPs were diluted to 6.25 ng/μL total mRNA in PBS pH=7.4 and transferred into a quartz cuvette (ZEN2112) to measure size by Dynamic Light Scattering (DLS) in the Zetasizer Nano ZS (Malvern Panalytical) using particle RI of 1.45 and absorption of 0.001 in PBS at 25° C. with viscosity of 0.888 cP and RI of 1.335. Measurements were made using a 1730 backscatter angle of detection previously equilibrated to 25° C. for 30 seconds in duplicates, each with 5 runs and 10 second run duration, without delay between measurements. […]

[4] = format: physicochemical; conditions: LNP containing the ionizable lipid
Experimental: as §1, with “LNPs were diluted to keep a final concentration of 75 uM of the ionizable lipid and 6 uM of TNS in a 75 mM TNS Buffer (10 mM of each of glycylglycine, acetate, imidazole, 20 mM borate, 25 mM NaCl) in order to keep a ratio TNS/ionizable of 0.08.” left out, “The results are illustrated in FIG. 37.” left out
LNP pKa was determined using the TNS assay. […] The Cytation 5 Cell Imaging Multi-Mode Reader (Biotek) was used to read Fluorescence (Ex321/Em445). The pH was measured in each well after TNS addition. […]

[5] = Dynamic Light Scattering for LNP size; format: physicochemical; conditions: number-average from DLS
Experimental: as §1, with “37. […]” for “37.”

[6] = mRNA copies per LNP from molecular volume model and DLS diameter; format: physicochemical; conditions: average mRNA copies per LNP
Experimental: Exemplary ADDE ionizable lipids. pKas were obtained from ACDLabs Percepta for the ionizable lipid, and by zeta potential and TNS for LNPs containing the ionizable lipids. LNP isoelectric pI was obtained from the zeta potential. LNP diameter is number-average from DLS. Average mRNA copies per LNP was calculated using a molecular volume model and the DLS diameter and is proportional to LNP volume.
LNPs were diluted to 6.25 ng/μL total mRNA in PBS pH=7.4 and transferred into a quartz cuvette (ZEN2112) to measure size by Dynamic Light Scattering (DLS) in the Zetasizer Nano ZS (Malvern Panalytical) using particle RI of 1.45 and absorption of 0.001 in PBS at 25° C. with viscosity of 0.888 cP and RI of 1.335. Measurements were made using a 1730 backscatter angle of detection previously equilibrated to 25° C. for 30 seconds in duplicates, each with 5 runs and 10 second run duration, without delay between measurements. […] Data was analyzed using a General-Purpose model with normal resolution. Diameter are reported as the number-average that corresponds more closely to physical size seen in electron microscopy versus the zeta-average. A molecular volume model described previously was used to estimate the number of mRNA copies in the LNP using the number average diameter to calculate LNP volume. LNPs were diluted into the TNS buffer described above at pH ranging from 3-10 for zeta potential measurement by Electrophoretic Light Scattering (ELS) in the Zetasizer Nano ZP (Malvern Panalytical) using the same material and dispersant parameters described above and the Smoluchowski model. Each measurement had voltage set manually at 80 Volts to avoid ohmic heating that occurred if voltage was set automatically. Measurements in the disposable folded capillary cuvette with an automatic attenuation selection for photon counts were made in triplicates for 20 runs each, and 30 second delay between each replicate. Mathematica was used to fit zeta potential data to the data to the extended Henderson-Hasselbalch equation Ψ=Ψ_max−((Ψ_max−Ψ_min))/((1+10^(((pKa−pH))/n))) to provide the pKa, n and low pH and high pH zeta potential limits Ψ_max and Ψ_min, respectively. The extended model is used here, since the LNP pKa is ionization-state-dependent in a way similar to a polyelectrolyte. […] The isoelectric pI was the pH found by interpolating zeta potential to zero. Cryoelectron Microscopy

physchem = format: physicochemical; conditions: for pKa: water soluble analogue
Experimental: The pH-dependence of proton NMR chemical shifts was used to measure the pKa's of the ionizable lipid water-soluble analogues (WSA) following published methods5,6. Chemical shifts of piperazine, imidazole, 2-chloroacetic acid and acetic acid were used as internal pH indicators. Solutions for MC3-WSA were prepared with 100 mM KCl, 2 mM piperazine, 2 mM imidazole, and 5 mM water soluble ionizable lipid analogue in 95% H2O-5% D2O. Solutions for the terminal(N1) and aza amines(N2) at the p-position of carboxylic esters of C24-WSA were prepared with 100 mM KCl, 2 mM piperazine, 2 mM imidazole, 0.2 mM DSS, and 5 mM water soluble ionizable lipid analogue in 95% H2O-5% D2O. Solutions for the internal amine (N3) of C24-WSA were prepared with 100 mM KCl, 2 mM chloroacetic acid, 2 mM acetic acid, 0.2 mM DSS, and 5 mM water soluble ionizable lipid analogue in 95% H2O-5% D2O. Solutions were split into two equal volumes and one titrated to a lower pH using 0.1 M HCl and the other to an upper pH using 0.1 M NaOH where the lower and upper pH bracketed the desired range of pH. Intermediate pH values were obtained by mixing different proportions of these two solutions. NMR measurements were performed on a Bruker 400 MHz spectrometer where 1H spectra were acquired at each of ˜24 pH values ranging from the lower to upper pH. […] Chemical shifts from piperazine, imidazole, 2-chloroacetic acid, and acetic acid were then used to calculate the pH of each solution according to published methods5,6 and the chemical shifts of protons adjacent to each nitrogen in the ionizable lipid water sluble analogue headgroup were fit to the Henderson-Hasselbalch equation to provide the pKa of each Nitrogen. Spectra are in Supplementary FIG. 2.

| Structure (SMILES) | ΔpKa = Classic-Galas [1] | ΔpKa = Classic-TNS [1] | pKa, TNS [2] | pKa,ZP [3] | pI, ZP [3] | pKa, TNS [4] | Diameter (nm) [5] [nm] | mRNA copies [6] | also measured |
| --- | --- | --- | --- | --- | --- | --- | --- | --- | --- |
| CCCCCCCCCCOC(=O)CCCCCN(CCO)CCCCCCCC(=O)OC(CCCCCCCC)CCCCCCCC [Moderna Lipid H] | 3.12 | 2.22 | 6.68 |  |  |  |  |  |  |
| CCCCCCCC(=O)N(CCCN1CCCC1)C(CCCCCCCCC(=O)OC(CCCC)CCCCCC)CCCCCCCCC(=O)OC(CCCC)CCCCCC (centres unmarked) [Acuitas Compound 15] | 3.38 | 3.98 | 6.32 |  |  |  |  |  |  |
| CCCCC/C=C\C/C=C\CCCCCCCCOC(=O)CCN(CCC(=O)OCCCCCCCC/C=C\C/C=C\CCCCC)CCN(C)C (racemic) [DL-C2/C2-DMA] |  |  |  | 6.9 | 7.1 | 8.0 | 40 | 1.1 |  |
| CCCCC/C=C\C/C=C\CCCCCCCCOC(=O)CCN(CCC(=O)OCCCCCCCC/C=C\C/C=C\CCCCC)CCN1CCCC1 (racemic) [DL-C2/C2-Pyr] |  |  |  | 6.8 | 7.2 | 7.9 | 48 | 1.5 |  |
| CCCCCCCCCCC(CCCCCCCC)COC(=O)CCN(CCCCN1CCN(C)CC1)CCC(=O)OCC(CCCCCCCC)CCCCCCCCCC (centres unmarked) [BODD-C2/C4-PipZ] |  |  |  | 4.9* | 5.8 | 7.0 | 55 | 3.3 |  |
| CCCCC/C=C\C/C=C\CCCCCCCCC(CCCCCCCC/C=C\C/C=C\CCCCC)OC(=O)CCCN(C)C [MC3] | 2.66 | 2.96 | 6.44 |  |  |  |  |  |  |
| CCCCCCCC/C=C\CCCCCCCC(=O)OCC(CN(C)C)OC(=O)CCCCCCC/C=C\CCCCCCCC (centres unmarked) [DODAP, 1,2-dioleoyl-3-dimethylammonium propane] | 1.8 | 2.2 | 5.8 |  |  |  |  |  |  |
| CN1CCN(CCCCN(CCC(=O)OC(C)(C)C)CCC(=O)OC(C)(C)C)CC1 [Lipid C24-WSA] |  |  |  |  |  |  |  |  | difference between NMR-measured and theoretical pKas (physchem): ≤ 0.4 units; pKa (physchem; read-out: pKa by 1H NMR, central nitrogen): 3.7; pKa (physchem; read-out: pKa by 1H NMR, nitrogen closest to the linker): 7.5; pKa (physchem; read-out: pKa by 1H NMR, terminal nitrogen): 8.1 |
| CCCCC/C=C\C/C=C\CCCCCCCCOC(=O)CCN(CCC(=O)OCCCCCCCC/C=C\C/C=C\CCCCC)CCN1CCN(C)CC1 (racemic) [DL-C2/C2-PipZ] |  |  |  | 6.2 | 7.6 | 7.8 | 64 | 4.3 |  |
| CCCCCCCCCCC(CCCCCCCC)COC(=O)CCN(CCC(=O)OCC(CCCCCCCC)CCCCCCCCCC)CCN1CCN(C)CC1 (centres unmarked) [BODD-C2/C2-PipZ] |  |  |  | 5.4 | 5.9 | 6.6 | 49 | 1.9 |  |
